From patent US20170334899A1, “AMINO-SUBSTITUTED ISOTHIAZOLES” (Bayer Pharma Aktiengesellschaft, priority 2014, published 2017)
Where “and” joins values, the source holds several entries; their conditions need not be identical. Equal values may be shown once.

Assays:
CDK2/CycE = target: T1, CDK2/CycE (Homo sapiens, UniProt P24941); test: CDK2/CycE kinase assay (TR-FRET); assay type: biochemical; conditions: avg, read-out: CDK2 avg (IC50 [mol/l])
T1 construct: GST; purchased ProQinase GmbH (Freiburg, Germany); host or cells: insect cells (Sf9)
Summary of the method: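 Read-out is a TR-FRET 665/620 nm emission ratio from EDTA-stopped reactions detected with anti-pRB(pSer807/pSer811), Eu-labelled anti-mouse IgG and streptavidin-XL665, scaled between no-enzyme and uninhibited wells. Reaction: Sf9-expressed GST-CDK2/GST-CycE, 15 min compound preincubation, 10 μM ATP, 0.75 μM biotin-peptide, 25 min, 22° C., pH 8.0 Tris buffer.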

[1] = target: T2, catalytic domain of human Bub1 (amino acids 704-1085) (Homo sapiens, UniProt O43683); test: Bub1 kinase assay (TR-FRET); assay type: biochemical; conditions: 10 μM ATP, avg, read-out: Bub1 avg (IC50 [mol/l])
T2 construct: catalytic domain of human Bub1 (amino acids 704-1085); His6 (N); made in house; host or cells: insect cells (Hi5)
Summary of the method: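 Readout is the 665/620 nm TR-FRET ratio from anti-phosphoserine antibody, Eu-labelled anti-mouse IgG and streptavidin-XL665, scaled between no-enzyme and uninhibited controls. Reaction: 1 μM biotinylated peptide, 10 μM ATP, 60 min, 22 °C, after 15 min compound preincubation with His6-Bub1 (704-1085, insect-expressed, ~200 ng/ml).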

T2 sequence (O43683 704-1085): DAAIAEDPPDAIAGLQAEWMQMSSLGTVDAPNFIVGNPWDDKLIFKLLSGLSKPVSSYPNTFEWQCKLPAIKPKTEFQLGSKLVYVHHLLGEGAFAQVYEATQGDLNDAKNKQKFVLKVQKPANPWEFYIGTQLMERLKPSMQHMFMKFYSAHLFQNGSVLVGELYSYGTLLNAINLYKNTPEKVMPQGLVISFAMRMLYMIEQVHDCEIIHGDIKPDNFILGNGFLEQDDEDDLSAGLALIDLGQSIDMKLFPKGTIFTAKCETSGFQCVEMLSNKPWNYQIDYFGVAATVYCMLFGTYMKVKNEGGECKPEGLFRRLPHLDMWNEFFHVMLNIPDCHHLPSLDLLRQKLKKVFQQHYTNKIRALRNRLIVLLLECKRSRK

IC50 (CDK2/CycE) [µM] | IC50 [1] | SMILES
> 20 | > 20 µM | Cc1nsc(Nc2cnc3ccccc3n2)c1C(=O)Nc1cccc(NS(=O)(=O)C2CN(CCF)C2)c1 [Example 287, N-[3-({[1-(2-fluoroethyl)azetidin-3-yl]sulfonyl}amino)phenyl]-3-methyl-5-(quinoxalin-2-ylamino)-1,2-thiazole-4-carboxamide]
≥ 20 | ≥ 20 µM | CC(=O)N1CCC(Oc2ccc(NC(=O)c3c(C)nsc3Nc3cnc4ccccc4n3)cn2)CC1 [Example 22, N-{6-[(1-acetylpiperidin-4-yl)oxy]pyridin-3-yl}-3-methyl-5-(quinoxalin-2-ylamino)-1,2-thiazole-4-carboxamide]
> 20 | > 20 µM | Cc1nsc(Nc2cnc(C(F)(F)F)cn2)c1C(=O)Nc1ccc(C(=O)NC2CN(CC(F)F)C2)cc1 [Example 271, N-(4-{[1-(2,2-difluoroethyl)azetidin-3-yl]carbamoyl}phenyl)-3-methyl-5-{[5-(trifluoromethyl)pyrazin-2-yl]amino}-1,2-thiazole-4-carboxamide]
> 20 | 1.2 µM | Cc1nsc(Nc2cnc3ccccc3n2)c1C(=O)Nc1cccc(C(=O)NC2CC2)c1 [Example 249, N-[3-(cyclopropylcarbamoyl)phenyl]-3-methyl-5-(quinoxalin-2-ylamino)-1,2-thiazole-4-carboxamide]
≥ 20 | ≥ 20 µM | Cc1nsc(Nc2cnc(C(F)(F)F)cn2)c1C(=O)Nc1ccc(F)c(OCCCNCCC(F)(F)F)c1 [Example 307, N-(4-fluoro-3-{3-[(3,3,3-trifluoropropyl)amino]propoxy}phenyl)-3-methyl-5-{[5-(trifluoromethyl)pyrazin-2-yl]amino}-1,2-thiazole-4-carboxamide]
> 20 | > 20 µM | Cc1nsc(Nc2cnc(C(F)(F)F)cn2)c1C(=O)Nc1ccc(C(=O)N2CCN(C)CC2)cc1 [Example 262, 3-methyl-N-{4-[(4-methylpiperazin-1 yl)carbonyl]phenyl}-5-{[5-(trifluoromethyl)pyrazin-2-yl]amino}-1,2-thiazole-4-carboxamide]
> 20 | > 20 µM | Cc1nsc(Nc2cnc(C(F)(F)F)cn2)c1C(=O)Nc1ccc(OC2CCN(CCF)C2)nc1 (stereo not shown) [Example 295, N-(6-{[1-(2-fluoroethyl)pyrrolidin-3-yl]oxy}pyridin-3-yl)-3-methyl-5-{[5-(trifluoromethyl)pyrazin-2-yl]amino}-1,2-thiazole-4-carboxamide]
> 20 | > 20 µM | Cc1nsc(Nc2cnc3ccccc3n2)c1C(=O)Nc1ccc(N2CCN(C(=O)OC(C)(C)C)CC2)nc1 [Example 248, tert-butyl 4-[5-({[3-methyl-5-(quinoxalin-2-ylamino)-1,2-thiazol-4-yl]carbonyl}amino)pyridin-2-yl]piperazine-1-carboxylate]
> 20 | 0.32 µM | Cc1nsc(Nc2cnc3ccccc3n2)c1C(=O)Nc1cccc(C(=O)NC(C)C)c1 [Example 253, N-[3-(isopropylcarbamoyl)phenyl]-3-methyl-5-(quinoxalin-2-ylamino)-1,2-thiazole-4-carboxamide]
≥ 20 | ≥ 20 µM | Cc1nsc(Nc2cnc(C(F)(F)F)cn2)c1C(=O)Nc1ccc(F)c(OCC2CCN(CCF)CC2)c1 [Example 309, N-(4-fluoro-3-{[1-(2-fluoroethyl)piperidin-4-yl]methoxy}phenyl)-3-methyl-5-{[5-(trifluoromethyl)pyrazin-2-yl]amino}-1,2-thiazole-4-carboxamide]
≥ 20 | ≥ 20 µM | Cc1nsc(Nc2ccc(C#N)cn2)c1C(=O)Nc1ccc(OC2CCN(C(=O)OC(C)(C)C)CC2)nc1 [Example 27, tert-Butyl 4-({5-[({5-[(5-cyanopyridin-2-yl)amino]-3-methyl-1,2-thiazol-4-yl}-carbonyl)amino]pyridin-2-yl}oxy)piperidine-1-carboxylate]
≥ 20 | ≥ 20 µM | Cc1nsc(Nc2cnc(C(F)(F)F)cn2)c1C(=O)Nc1ccc(F)c(OCC2CCN(C(CF)CF)C2)c1 (stereo not shown) [Example 320, N-(3-{[1-(1,3-difluoropropan-2-yl)pyrrolidin-3-yl]methoxy}-4-fluorophenyl)-3-methyl-5-{[5-(trifluoromethyl)pyrazin-2-yl]amino}-1,2-thiazole-4-carboxamide]
> 20 | > 20 µM | Cc1nsc(Nc2cncc(C(F)(F)F)n2)c1C(=O)Nc1ccc(C(=O)N2CCN(CC(F)F)CC2)cc1 [Example 273, N-(4-{[4-(2,2-difluoroethyl)piperazin-1-yl]carbonyl}phenyl)-3-methyl-5-{[6-(trifluoromethyl)pyrazin-2-yl]amino}-1,2-thiazole-4-carboxamide]
> 20 | > 20 µM | Cc1nsc(Nc2ccc(C#N)cn2)c1C(=O)Nc1cccc(C(=O)NC(C)C)c1 [Example 255, 5-[(5-cyanopyridin-2-yl)amino]-N-[3-(isopropylcarbamoyl)phenyl]-3-methyl-1,2-thiazole-4-carboxamide]
> 20 | > 20 µM | Cc1nsc(Nc2cnc(C(F)(F)F)cn2)c1C(=O)Nc1ccc(F)c(OC2CCN(CC(F)(F)F)CC2)c1 [Example 264, N-(4-fluoro-3-{[1-(2,2,2-trifluoroethyl)piperidin-4-yl]oxy}phenyl)-3-methyl-5-{[5-(trifluoromethyl)pyrazin-2-yl]amino}-1,2-thiazole-4-carboxamide]
> 20 | > 20 µM | Cc1nsc(Nc2cnc(C(F)(F)F)cn2)c1C(=O)Nc1ccc(OCCCNCC(F)F)nc1 [Example 293, N-(6-{3-[(2,2-difluoroethyl)amino]propoxy}pyridin-3-yl)-3-methyl-5-{[5-(trifluoromethyl)pyrazin-2-yl]amino}-1,2-thiazole-4-carboxamide]
 | > 20 µM | Cc1nsc(Nc2cnc3ccccc3n2)c1C(=O)Nc1cccc(NS(=O)(=O)C2CCN(CCC(F)(F)F)CC2)c1 [Example 283, 3-methyl-5-(quinoxalin-2-ylamino)-N-[3-({[1-(3,3,3-trifluoropropyl)piperidin-4-yl]sulfonyl}amino)phenyl]-1,2-thiazole-4-carboxamide]
> 20 | > 20 µM | Cc1nsc(Nc2cnc(C(F)(F)F)cn2)c1C(=O)Nc1ccc(F)c(OC2CCN(CC(F)F)CC2)c1 [Example 265, N-(3-{[1-(2,2-difluoroethyl)piperidin-4-yl]oxy}-4-fluorophenyl)-3-methyl-5-{[5-(trifluoromethyl)pyrazin-2-yl]amino}-1,2-thiazole-4-carboxamide]
> 20 | > 20 µM and 19 µM | Cc1nsc(Nc2cnc(C(F)(F)F)cn2)c1C(=O)Nc1ccc(OCCCO)nc1 [Example 279, N-[6-(3-hydroxypropoxy)pyridin-3-yl]-3-methyl-5-{[5-(trifluoromethyl)pyrazin-2-yl]amino}-1,2-thiazole-4-carboxamide]
> 20 | > 20 µM and 18 µM | Cc1nsc(Nc2cnc(C(F)(F)F)cn2)c1C(=O)Nc1ccc(OCCO)nc1 [Example 277, N-[6-(2-hydroxyethoxy)pyridin-3-yl]-3-methyl-5-{[5-(trifluoromethyl)pyrazin-2-yl]amino}-1,2-thiazole-4-carboxamide]
> 20 | > 20 µM | Cc1nsc(Nc2cnc(C(F)(F)F)cn2)c1C(=O)Nc1ccc(F)c(OC2CCN(CCF)CC2)c1 [Example 266, N-(4-fluoro-3-{[1-(2-fluoroethyl)piperidin-4-yl]oxy}phenyl)-3-methyl-5-{[5-(trifluoromethyl)pyrazin-2-yl]amino}-1,2-thiazole-4-carboxamide]
> 20 | > 20 µM | Cc1nsc(Nc2cnc(C(F)(F)F)cn2)c1C(=O)Nc1ccc(OC2CCN(CC(F)F)C2)nc1 (stereo not shown) [Example 296, N-(6-{[1-(2,2-difluoroethyl)pyrrolidin-3-yl]oxy}pyridin-3-yl)-3-methyl-5-{[5-(trifluoromethyl)pyrazin-2-yl]amino}-1,2-thiazole-4-carboxamide]
19 | > 20 µM | Cc1nsc(Nc2cnc3ccccc3n2)c1C(=O)Nc1cccc(NS(=O)(=O)C2CCN(C(=O)OC(C)(C)C)C2)c1 (stereo not shown) [Example 290, tert-butyl 3-{[3-({[3-methyl-5-(quinoxalin-2-ylamino)-1,2-thiazol-4-yl]carbonyl}amino)phenyl]sulfamoyl} pyrrolidine-1-carboxylate]
> 20 | > 20 µM | Cc1nsc(Nc2cnc3ccccc3n2)c1C(=O)Nc1cccc(NS(=O)(=O)C2CCN(CC(F)(F)F)CC2)c1 [Example 281, 3-methyl-5-(quinoxalin-2-ylamino)-N-[3-({[1-(2,2,2-trifluoroethyl)piperidin-4-yl]sulfonyl}amino)phenyl]-1,2-thiazole-4-carboxamide]
 | > 20 µM | Cc1nsc(Nc2cnc3ccccc3n2)c1C(=O)Nc1cccc(NS(=O)(=O)C2CCN(CC(F)(F)F)C2)c1 (stereo not shown) [Example 289, 3-methyl-5-(quinoxalin-2-ylamino)-N-[3-({[1-(2,2,2-trifluoroethyl)pyrrolidin-3-yl]sulfonyl}amino)phenyl]-1,2-thiazole-4-carboxamide]
 | > 20 µM | Cc1nsc(Nc2cnc3ccccc3n2)c1C(=O)Nc1cccc(NS(=O)(=O)C2CN(CC(F)F)C2)c1 [Example 286, N-[3-({[1-(2,2-difluoroethyl)azetidin-3-yl]sulfonyl}amino)phenyl]-3-methyl-5-(quinoxalin-2-ylamino)-1,2-thiazole-4-carboxamide]
